From US7601716B2, “Pyridopyrazines and derivatives thereof as ALK and c-Met inhibitors” (Cephalon, Inc., priority 2006, dated 2009)
Counter-ions that a name gives are not always drawn.

Assays:
[1] = biological target: T1, c-Met (cytoplasmic domain) (Homo sapiens, UniProt P08581); assay: c-Met Kinase Assay (ELISA/TRF, PLC-γ substrate); assay type: biochemical; conditions: 3 μM ATP (Km level); read-out: c-Met Kinase Inhibition (IC50)
T1 construct: Reactions were initiated with 30 ng/mL c-Met (cytoplasmic domain, Invitrogen Corporation #PV3143); purchased Invitrogen Corporation PV3143
T1 sequence (P08581 956-1390 limits assumed): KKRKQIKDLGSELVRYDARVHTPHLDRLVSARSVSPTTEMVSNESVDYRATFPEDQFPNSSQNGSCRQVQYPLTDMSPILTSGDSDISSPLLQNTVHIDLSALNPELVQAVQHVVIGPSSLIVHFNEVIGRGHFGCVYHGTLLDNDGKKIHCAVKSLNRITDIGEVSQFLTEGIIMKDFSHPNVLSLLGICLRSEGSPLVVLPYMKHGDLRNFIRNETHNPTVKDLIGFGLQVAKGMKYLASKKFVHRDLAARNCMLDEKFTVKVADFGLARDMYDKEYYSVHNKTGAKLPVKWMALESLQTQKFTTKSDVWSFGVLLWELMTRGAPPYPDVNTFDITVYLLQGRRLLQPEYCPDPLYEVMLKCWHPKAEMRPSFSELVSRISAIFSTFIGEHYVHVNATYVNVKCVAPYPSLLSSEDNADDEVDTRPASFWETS
Experimental: Example compounds were tested for their ability to inhibit the kinase activity of baculovirus-expressed ALK using a modification of the ELISA protocol reported for trkA in Angeles, T. S. et al., Anal. Biochem. 1996, 236, 49-55, which is incorporated herein by reference in its entirety. Phosphorylation of the substrate, phospholipase C-gamma (PLC-γ) generated as a fusion protein with glutathione S-transferase (GST) as reported in Rotin, D. et al., EMBO J. 1992, 11, 559-567, which is incorporated herein by reference in its entirety, was detected with a europium-labeled anti-phosphotyrosine antibody and measured by time-resolved fluorescence (TRF). Briefly, each 96-well plate was coated with 100 μL/well of 10 μg/mL substrate (phospholipase C-γ) in Tris-buffered saline (TBS). […] The reaction was initiated by adding enzyme (30 ng/ml ALK) and was allowed to proceed at 37° C. for 15 minutes. Detection of the phosphorylated product was performed by adding 100 μl/well of Eu-N1 labeled PT66 antibody (Perkin Elmer # AD0041). Incubation at 37° C. then proceeded for one (1) hour, followed by addition of 100 μL enhancement solution (Wallac #1244-105). The plate was gently agitated and after thirty minutes, the fluorescence of the resulting solution was measured using the EnVision 2100 (or 2102) multilabel plate reader (Perkin Elmer).
Data analysis was performed using ActivityBase (IDBS, Guilford, UK). IC50 values were calculated by plotting percent inhibition versus log10 of the concentration of compound and fitting to the nonlinear regression sigmoidal dose-response (variable slope) equation in XLFit (IDBS, Guilford, UK).
Reactions were initiated with 30 ng/mL c-Met (cytoplasmic domain, Invitrogen Corporation #PV3143).

[2] = biological target: baculovirus-expressed ALK (Homo sapiens, UniProt Q9UM73); assay: ALK Kinase Assay (ELISA/TRF, PLC-γ substrate); assay type: biochemical; conditions: read-out: ALK Kinase Inhibition (IC50); note: 1 µM ATP (Km level)
baculovirus-expressed ALK, sequence (Q9UM73 19-1620): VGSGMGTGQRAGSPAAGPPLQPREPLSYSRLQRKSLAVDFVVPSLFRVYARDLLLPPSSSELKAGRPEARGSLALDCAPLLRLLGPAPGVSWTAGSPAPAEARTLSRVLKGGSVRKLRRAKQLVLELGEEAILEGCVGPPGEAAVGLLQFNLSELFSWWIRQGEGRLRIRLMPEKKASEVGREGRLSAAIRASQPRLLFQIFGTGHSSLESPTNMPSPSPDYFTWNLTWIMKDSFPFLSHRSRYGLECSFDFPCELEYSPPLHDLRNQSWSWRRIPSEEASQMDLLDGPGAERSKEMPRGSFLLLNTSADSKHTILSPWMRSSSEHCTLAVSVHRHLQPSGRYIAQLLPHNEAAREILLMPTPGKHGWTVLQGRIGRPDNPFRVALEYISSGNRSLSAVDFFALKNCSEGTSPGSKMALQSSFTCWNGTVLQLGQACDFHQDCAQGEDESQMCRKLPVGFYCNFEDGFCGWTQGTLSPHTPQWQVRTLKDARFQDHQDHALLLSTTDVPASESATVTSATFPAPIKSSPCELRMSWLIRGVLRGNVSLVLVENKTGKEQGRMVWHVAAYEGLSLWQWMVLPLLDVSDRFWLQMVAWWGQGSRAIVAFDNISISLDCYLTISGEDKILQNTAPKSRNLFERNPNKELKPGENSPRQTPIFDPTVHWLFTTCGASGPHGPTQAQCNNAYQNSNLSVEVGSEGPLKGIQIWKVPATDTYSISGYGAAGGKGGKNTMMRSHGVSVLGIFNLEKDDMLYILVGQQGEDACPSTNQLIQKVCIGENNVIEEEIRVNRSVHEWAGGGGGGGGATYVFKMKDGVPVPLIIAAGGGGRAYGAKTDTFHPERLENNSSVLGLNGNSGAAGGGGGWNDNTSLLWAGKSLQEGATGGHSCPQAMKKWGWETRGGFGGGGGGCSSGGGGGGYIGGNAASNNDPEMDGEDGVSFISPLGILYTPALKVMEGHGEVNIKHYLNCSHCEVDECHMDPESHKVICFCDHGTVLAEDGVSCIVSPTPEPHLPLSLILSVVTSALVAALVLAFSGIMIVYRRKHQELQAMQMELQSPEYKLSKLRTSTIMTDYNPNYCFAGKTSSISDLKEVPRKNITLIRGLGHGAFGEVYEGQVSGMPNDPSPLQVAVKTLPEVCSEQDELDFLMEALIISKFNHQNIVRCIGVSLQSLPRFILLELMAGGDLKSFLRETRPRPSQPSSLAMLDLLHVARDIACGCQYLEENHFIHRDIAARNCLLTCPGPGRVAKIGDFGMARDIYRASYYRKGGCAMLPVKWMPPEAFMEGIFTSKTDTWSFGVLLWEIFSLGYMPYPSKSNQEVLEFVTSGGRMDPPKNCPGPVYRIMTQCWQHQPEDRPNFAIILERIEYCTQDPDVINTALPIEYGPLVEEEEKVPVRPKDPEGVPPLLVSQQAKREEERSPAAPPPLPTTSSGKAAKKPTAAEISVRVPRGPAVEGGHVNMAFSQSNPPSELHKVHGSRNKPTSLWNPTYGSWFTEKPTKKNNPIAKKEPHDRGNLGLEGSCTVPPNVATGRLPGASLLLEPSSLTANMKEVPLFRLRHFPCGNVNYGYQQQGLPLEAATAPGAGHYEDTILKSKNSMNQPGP
Method in brief: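 Substrate phosphorylation by 30 ng/ml ALK (37° C, 15 min) on PLC-γ-coated wells is quantified via time-resolved europium fluorescence from an anti-phosphotyrosine antibody. Percent inhibition against log10 compound concentration yields IC50 by nonlinear regression.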

| SMILES | IC50 [1] | IC50 [2] |
| --- | --- | --- |
| O=C(NCc1cccc2ccccc12)c1cnc2c(c1)N(Cc1cc(Cl)ccc1Cl)CCN2 [Example 244, 1-(2,5-Dichlorobenzyl)-1,2,3,4-tetrahydropyrido[2,3-b]pyrazine-7-carboxylic acid (naphthalen-1-yl-methyl)amide] | > 100 µM | 1 to 10 µM |
| FC(F)(F)c1ccc(CN2CCNc3ncc(-c4ccc(N5CCOCC5)nc4)cc32)o1 [Example 292, 7-(6-Morpholin-4-yl-pyridin-3-yl)-1-[5-(trifluoromethyl)furan-2-ylmethyl]-1,2,3,4-tetrahydropyrido[2,3-b]pyrazine] | > 100 µM | 1 to 10 µM |
| CC(c1cc(F)ccc1F)N1CCNc2ncc(I)cc21 (stereo not drawn) [Example 153, 1-[1-(2,5-Difluorophenyl)ethyl]-7-iodo-1,2,3,4-tetrahydropyrido[2,3-b]pyrazine] | > 100 µM | > 100 µM |
| O=C(c1cnc2c(c1)N(Cc1cc(Cl)ccc1Cl)CCN2)N1CCC(c2noc3cc(F)ccc23)CC1 [Example 221, [1-(2,5-Dichlorobenzyl)-1,2,3,4-tetrahydropyrido[2,3-b]pyrazin-7-yl]-[4-(6-fluorobenzo[d]isoxazol-3-yl)piperidin-1-yl]methanone] | > 100 µM | 10 to 100 µM |
| O=C(NCCCN1CCOCC1)c1ccc(-c2cnc3c(c2)N(Cc2ccccc2)C(=O)CN3)cc1 [Example 14, 4-(1-Benzyl-2-oxo-1,2,3,4-tetrahydropyrido[2,3-b]pyrazin-7-yl)-N-(3-morpholin-4-yl-propyl)benzamide, trifluoroacetic acid salt] | > 100 µM | 10 to 100 µM |
| NS(=O)(=O)c1ccc(CCNC(=O)c2cnc3c(c2)N(Cc2cc(Cl)ccc2Cl)CCN3)cc1 [Example 240, 1-(2,5-Dichlorobenzyl)-1,2,3,4-tetrahydropyrido[2,3-b]pyrazine-7-carboxylic acid [2-(4-sulfamoylphenyl)ethyl]amide] | > 100 µM | 0.1 to 1 µM |
| CN1CCN(c2ccc(-c3cnc4c(c3)C(Cc3cc(F)ccc3F)CCN4)cn2)CC1 (stereo not drawn) [Example 286, 4-(2,5-Difluorobenzyl)-6-[6-(4-methylpiperazin-1-yl)pyridin-3-yl]-1,2,3,4-tetrahydro-[1,8]naphthyridine] | > 100 µM | 1 to 10 µM |
| O=C1CNc2ncc(-c3ccc(C(=O)N4CCC[C@H]4CN4CCCC4)cc3)cc2N1Cc1ccccc1 [Example 13, S-1-Benzyl-7-[4-(2-[(pyrrolidin-1-yl)methyl]pyrrolidine-1-carbonyl)phenyl]-3,4-dihydro-1H-pyrido[2,3-b]pyrazin-2-one, trifluoroacetic acid salt] | > 100 µM | 10 to 100 µM |
| O=C(NCc1csc(-c2ccccc2)n1)c1cnc2c(c1)N(Cc1cc(Cl)ccc1Cl)CCN2 [Example 242, 1-(2,5-Dichlorobenzyl)-1,2,3,4-tetrahydropyrido[2,3-b]pyrazine-7-carboxylic acid (2-phenylthiazol-4-yl-methyl)amide] | > 100 µM | 1 to 10 µM |
| CC(c1cc(F)c(F)cc1F)N1C(=O)CNc2ncc(I)cc21 (stereo not drawn) [Example 145, 7-Iodo-1-[1-(2,4,5-trifluorophenyl)ethyl]-3,4-dihydro-1H-pyrido[2,3-b]pyrazin-2-one] | > 100 µM | > 100 µM |
| O=C(NCc1ccccc1)c1cnc2c(c1)N(Cc1cc(Cl)ccc1Cl)CCN2 [Example 246, 1-(2,5-Dichlorobenzyl)-1,2,3,4-tetrahydropyrido[2,3-b]pyrazine-7-carboxylic acid benzylamide] | > 100 µM | 0.1 to 1 µM |

Other lines, results leading:

| IC50 [1] | IC50 [2] | SMILES |
| --- | --- | --- |
| 10 to 100 µM | > 100 µM | Clc1cccc(OC2CCNc3ncc(Br)cc32)c1 (stereo not drawn) [Example 271, 6-Bromo-4-(3-chlorophenoxy)-1,2,3,4-tetrahydro-[1,8]naphthyridine] |
| 10 to 100 µM | 10 to 100 µM | O=C(NCC(c1ccccc1)c1ccccc1)c1cnc2c(c1)N(Cc1cc(Cl)ccc1Cl)CCN2 [Example 226, 1-(2,5-Dichlorobenzyl)-1,2,3,4-tetrahydropyrido[2,3-b]pyrazine-7-carboxylic acid (2,2-diphenylethyl)amide] |
| 1 to 10 µM | 0.1 to 1 µM | CN1CCN(c2ccc(-c3cnc4c(c3)C(Oc3cccc(Cl)c3)CCN4)cn2)CC1 (stereo not drawn) [Example 281, 4-(3-Chlorophenoxy)-6-[6-(4-methylpiperazin-1-yl)pyridin-3-yl]-1,2,3,4-tetrahydro-[1,8]naphthyridine] |
| > 100 µM | 1 to 10 µM | O=C(c1cnc2c(c1)N(Cc1cc(Cl)ccc1Cl)CCN2)N1CCN(Cc2ccc(Cl)cc2)CC1 [Example 255, [4-(4-Chlorobenzyl)piperazin-1-yl]-[1-(2,5-dichlorobenzyl)-1,2,3,4-tetrahydropyrido[2,3-b]pyrazin-7-yl]methanone] |
| > 100 µM | 0.1 to 1 µM | O=C(NCCc1cccs1)c1cnc2c(c1)N(Cc1cc(Cl)ccc1Cl)CCN2 [Example 232, 1-(2,5-Dichlorobenzyl)-1,2,3,4-tetrahydropyrido[2,3-b]pyrazine-7-carboxylic acid (2-thiophen-2-yl-ethyl)amide] |
| 10 to 100 µM | 1 to 10 µM | O=C(NC(c1ccccc1)c1ccccc1)c1cnc2c(c1)N(Cc1cc(Cl)ccc1Cl)CCN2 [Example 233, 1-(2,5-Dichlorobenzyl)-1,2,3,4-tetrahydropyrido[2,3-b]pyrazine-7-carboxylic acid benzhydrylamide] |
| 10 to 100 µM | 1 to 10 µM | O=C(c1cccc(-c2cnc3c(c2)N(Cc2ccccc2)C(=O)CN3)c1)N1CCCC1 [Example 20, 1-Benzyl-7-[3-(pyrrolidine-1-carbonyl)phenyl]-3,4-dihydro-1H-pyrido[2,3-b]pyrazin-2-one] |
| 1 to 10 µM | 1 to 10 µM | CN1CCN(C(=O)c2ccc(-c3cnc4c(c3)C(Oc3cccc(Cl)c3)CCN4)cc2)CC1 (stereo not drawn) [Example 274, {4-[5-(3-Chlorophenoxy)-5,6,7,8-tetrahydro-[1,8]naphthyridin-3-yl]-phenyl}-(4-methylpiperazin-1-yl)methanone] |
| 10 to 100 µM | 1 to 10 µM | O=C(c1cnc2c(c1)N(Cc1cc(Cl)ccc1Cl)CCN2)N1CCN(c2ccc(Cl)c(Cl)c2)CC1 [Example 213, [1-(2,5-Dichlorobenzyl)-1,2,3,4-tetrahydropyrido[2,3-b]pyrazin-7-yl]-[4-(3,4-dichlorophenyl)-piperazin-1-yl]methanone] |
| 10 to 100 µM | 10 to 100 µM | CC(=O)N1CCN(C(=O)c2cnc3c(c2)N(Cc2cc(Cl)ccc2Cl)CCN3)CC1 [Example 227, 1-{4-[1-(2,5-Dichlorobenzyl)-1,2,3,4-tetrahydropyrido[2,3-b]pyrazine-7-carbonyl]piperazin-1-yl}ethanone] |
| 10 to 100 µM | 1 to 10 µM | Clc1cccc(Cl)c1CN1CCNc2ncc(-c3cccnc3)cc21 [Example 138, 1-(2,6-Dichlorobenzyl)-7-pyridin-3-yl-1,2,3,4-tetrahydropyrido[2,3-b]pyrazine, trifluoroacetic acid salt] |
| 10 to 100 µM | 1 to 10 µM | Clc1cccc(OC2CCNc3ncc(-c4cccc(N5CCOCC5)c4)cc32)c1 (stereo not drawn) [Example 279, 4-(3-Chlorophenoxy)-6-(3-morpholin-4-yl-phenyl)-1,2,3,4-tetrahydro-[1,8]naphthyridine] |
| 10 to 100 µM | 1 to 10 µM | O=C(c1ccc(-c2cnc3c(c2)N(Cc2ccccc2)C(=O)CN3)cc1)N1CCC(N2CCCC2)CC1 [Example 26, 1-Benzyl-7-[4-(4-(pyrrolidin-1-yl)piperidine-1-carbonyl)phenyl]-3,4-dihydro-1H-pyrido[2,3-b]pyrazin-2-one, trifluoroacetic acid salt] |
| 10 to 100 µM | 1 to 10 µM | O=C(O)c1cccc(-c2cnc3c(c2)N(Cc2cc(Cl)ccc2C(F)(F)F)CCN3)c1 [Example 196, 3-{1-[5-Chloro-2-(trifluoromethyl)benzyl]-1,2,3,4-tetrahydropyrido[2,3-b]pyrazin-7-yl}benzoic acid] |
| 1 to 10 µM | 0.1 to 1 µM | O=C(c1ccc(-c2cnc3c(c2)N(Cc2cc(F)c(F)cc2F)CCN3)cc1)N1CCC[C@H]1CN1CCCC1 [Example 84, ((S)-2-((pyrrolidin-1-yl)methyl)pyrrolidin-1-yl)-{4-[1-(2,4,5-trifluorobenzyl)-1,2,3,4-tetrahydropyrido[2,3-b]pyrazin-7-yl]phenyl}-methanone] |
| 10 to 100 µM | 1 to 10 µM | CN1CCN(C(=O)c2ccc(-c3cnc4c(c3)N(Cc3ccccc3)C(=O)CN4)cc2)CC1 [Example 25, 1-Benzyl-7-[4-(4-methylpiperazine-1-carbonyl)phenyl]-3,4-dihydro-1H-pyrido[2,3-b]pyrazin-2-one, trifluoroacetic acid salt] |
